Experiments:
SNU449 cells = experiment: EGFR shRNA knockdown with lenvatinib, proliferation; format: cell-based, human; settings: SNU449 cells with EGFR shRNA vectors, about 10 days
Protocol: FIG. 1. […] Cell growth was assessed by a colony formation assay. […] Viability was assessed by CellTiter-Blue assays. (c) The level of EGFR knockdown was determined by western blot for three independent shRNAs. HSP90 protein level served as a loading control.
After this, genomic DNA was isolated from both treated and untreated cells, and the relative abundance of gRNA was determined by next generation sequencing of the bar code contained in each gRNA vector in three biological replicates as described (Evers et al., 2016. Nat Biotechnol 34: 631-3).

SNU449 xenograft = settings: nude mice, lenvatinib 4 mg/kg, gefitinib 80 mg/kg, about 27 days
advanced HCC = settings: first-line treatment of advanced HCC; cited from earlier work
EGFR = experiment: western blot with phospho-protein-specific antibodies, EGFR activation; format: cell-based, human; settings: three EGFR-high liver cancer cell lines
Protocol: (§1) FIG. 3. […] Activation of EGFR and ERK1/2 was analyzed. HSP90 served as a control.

ERK1/2 = experiment: western blot with phospho-protein-specific antibodies, ERK1/2 activation; format: cell-based, human; settings: three EGFR-high liver cancer cell lines
Protocol: as §1

FGFR2 = FGFR2 (Homo sapiens, UniProt P21802); settings: cited from earlier work
VEGFR family = settings: cited from earlier work
advanced HCC patients = settings: clinical trials; cited from earlier work

Chain of FGFR2 (P21802 22-821, species assumed): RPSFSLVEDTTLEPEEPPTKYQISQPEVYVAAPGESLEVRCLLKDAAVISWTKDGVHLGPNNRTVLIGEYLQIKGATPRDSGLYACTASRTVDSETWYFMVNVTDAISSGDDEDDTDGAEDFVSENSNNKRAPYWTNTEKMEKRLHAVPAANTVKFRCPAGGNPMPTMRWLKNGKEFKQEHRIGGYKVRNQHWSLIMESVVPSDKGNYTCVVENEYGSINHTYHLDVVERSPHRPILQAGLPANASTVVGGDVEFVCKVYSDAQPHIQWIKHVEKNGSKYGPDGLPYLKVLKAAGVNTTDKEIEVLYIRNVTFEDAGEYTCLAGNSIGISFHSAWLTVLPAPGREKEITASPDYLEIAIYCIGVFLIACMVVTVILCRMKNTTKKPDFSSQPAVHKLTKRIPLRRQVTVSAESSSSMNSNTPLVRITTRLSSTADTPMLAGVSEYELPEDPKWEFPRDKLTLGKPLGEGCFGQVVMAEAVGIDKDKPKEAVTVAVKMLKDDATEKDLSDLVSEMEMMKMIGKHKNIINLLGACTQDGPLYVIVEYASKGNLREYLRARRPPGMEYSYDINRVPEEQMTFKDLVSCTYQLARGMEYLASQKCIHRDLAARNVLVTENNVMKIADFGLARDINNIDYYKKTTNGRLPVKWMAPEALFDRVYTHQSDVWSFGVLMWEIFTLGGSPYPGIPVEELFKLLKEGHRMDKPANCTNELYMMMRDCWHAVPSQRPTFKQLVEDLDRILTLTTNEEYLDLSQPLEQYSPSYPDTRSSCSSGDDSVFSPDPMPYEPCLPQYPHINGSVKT

SMILES	proliferation with suppression of EGFR (shRNA) in combination (SNU449 cells)	tumor growth / antitumor effect (SNU449 xenograft)	overall survival (advanced HCC) [months]	Tyr 1068 phosphorylation of EGFR (activation of the receptor) (EGFR)	phosphorylation (activation) of ERK1/2 (ERK1/2)	Ki (FGFR2) [nM]	Ki (VEGFR family) [nM]	improvement of survival compared to placebo (advanced HCC patients)
COc1cc2nccc(Oc3ccc(NC(=O)NC4CC4)c(Cl)c3)c2cc1C(N)=O [lenvatinib, 4-[3-chloro-4-(cyclopropylcarbamoylamino)phenoxy]-7-methoxyquinoline-6-carboxamide]	marked inhibition of proliferation	little antitumor effect	13.6	strong increase	strong increase	8.21	1	
CNC(=O)c1cc(Oc2ccc(NC(=O)Nc3ccc(Cl)c(C(F)(F)F)c3)cc2)ccn1 [sorafenib, 4-[4-[[4-chloro-3-(trifluoromethyl)phenyl]carbamoylamino]phenoxy]-N-methylpyridine-2-carboxamide]			12.3					less than 3 months
COc1cc2ncnc(Nc3ccc(F)c(Cl)c3)c2cc1OCCCN1CCOCC1 [gefitinib, N-(3-chloro-4-fluorophenyl)-7-methoxy-6-(3-morpholin-4-ylpropoxy)quinazolin-4-amine]		little antitumor effect						

Reference: patent publication US20220280499A1, “NOVEL DRUG COMBINATIONS FOR TREATMENT OF A CARCINOMA” (Stichting Het Nederlands Kanker Instituue-Antoni van …, priority 2019, published 2022)
